Data set [1] concerns HCV genotype 1b HCV replicon harbored in Huh7 cells. Kind of data set: Combination testing in HCV replicon (MacSynergy II). It counts as cell-based. The following applies: for Synergy Volume: combination with compound 18, 72 h, MacSynergy II, Bliss independence model; for Determination: combination with compound 18, class from synergy volume. Background: A replicon is a self-replicating genome or part of one, used to study replication in cells.

The subject of data set [2] is mitochondrial protein synthesis (COX-I relative to SDH-A) in HepG2 cells.
Data set [3] addresses human mitochondrial RNA polymerase (Homo sapiens (Human), UniProt O00411). Kind of data set: DdRp assay: incorporation of nucleotides by human mitochondrial RNA polymerase (HMRP). The following applies: 100 μM NTP, single turnover, product band on gel.

human mitochondrial RNA polymerase, sequence (O00411 42-1230): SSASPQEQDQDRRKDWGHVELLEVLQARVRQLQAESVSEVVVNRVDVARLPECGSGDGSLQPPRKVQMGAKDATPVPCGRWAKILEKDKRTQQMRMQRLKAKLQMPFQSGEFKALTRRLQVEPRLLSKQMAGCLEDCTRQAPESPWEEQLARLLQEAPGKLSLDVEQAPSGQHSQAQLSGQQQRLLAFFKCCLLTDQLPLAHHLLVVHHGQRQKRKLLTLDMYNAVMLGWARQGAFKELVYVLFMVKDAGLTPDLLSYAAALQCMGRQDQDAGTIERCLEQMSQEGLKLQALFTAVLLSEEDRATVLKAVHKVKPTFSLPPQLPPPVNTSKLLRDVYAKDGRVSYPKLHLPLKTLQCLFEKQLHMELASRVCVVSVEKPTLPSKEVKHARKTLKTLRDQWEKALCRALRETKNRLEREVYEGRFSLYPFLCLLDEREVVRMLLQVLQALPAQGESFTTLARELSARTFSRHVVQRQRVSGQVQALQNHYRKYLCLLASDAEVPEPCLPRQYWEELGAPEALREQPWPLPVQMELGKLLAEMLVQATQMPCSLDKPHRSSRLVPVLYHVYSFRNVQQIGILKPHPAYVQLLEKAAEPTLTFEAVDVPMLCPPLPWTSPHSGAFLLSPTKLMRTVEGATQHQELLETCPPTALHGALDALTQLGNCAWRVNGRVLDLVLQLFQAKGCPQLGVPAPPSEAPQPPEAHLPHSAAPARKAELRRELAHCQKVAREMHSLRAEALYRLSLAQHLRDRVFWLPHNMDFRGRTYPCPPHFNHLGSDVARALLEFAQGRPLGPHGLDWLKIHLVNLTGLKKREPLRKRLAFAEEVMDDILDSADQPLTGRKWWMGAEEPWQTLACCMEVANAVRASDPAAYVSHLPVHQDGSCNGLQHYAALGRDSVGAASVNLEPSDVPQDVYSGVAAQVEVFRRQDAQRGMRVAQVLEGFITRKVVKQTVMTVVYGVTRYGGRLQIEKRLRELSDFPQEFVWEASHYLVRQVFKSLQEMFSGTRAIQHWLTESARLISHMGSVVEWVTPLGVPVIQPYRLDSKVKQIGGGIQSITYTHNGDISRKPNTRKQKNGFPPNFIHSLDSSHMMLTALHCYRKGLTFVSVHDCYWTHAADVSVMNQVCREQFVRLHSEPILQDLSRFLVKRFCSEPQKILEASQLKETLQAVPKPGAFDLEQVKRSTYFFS

For `COC(=O)N[C@H](C(=O)N1CCC[C@H]1c1nc(-c2ccc(-c3ccc(-c4c[nH]c([C@@H]5CCCN5C(=O)[C@@H](NC(=O)OC)C(C)C)n4)cc3)cc2)c[nH]1)C(C)C` [BMS-790052 (4001)], in data set [1], the “Synergy Volume” value is listed as 38.01 μM^2% and the Determination result is reported as “Synergistic (volumes in the 25-100 range indicate synergistic behavior)”.
The corresponding values for `NC(=O)c1ncn([C@@H]2O[C@H](CO)[C@@H](O)[C@H]2O)n1` [Ribavirin (5012), Ribavirin] are 6.77 μM^2% and “Additive (volumes in the −25-25 range indicate additive behavior)”.
For the molecule `CNC(=O)c1c(-c2ccc(F)cc2)oc2cc(N(CCO)S(C)(=O)=O)c(C3CC3)cc12` [HCV-796 (3004)], in data set [1], the “Synergy Volume” value is reported as 81.72 μM^2% and the Determination result is given as “Synergistic (volumes in the 25-100 range indicate synergistic behavior)”.
Turning to `COc1nc(N)nc2c1ncn2[C@@H]1O[C@H](COP(=O)(N[C@@H](C)C(=O)OCC(C)(C)C)Oc2cccc3ccccc23)[C@@H](O)[C@@]1(C)O` (stereo partly shown) [INX-08189/BMS-986094], the “inhibition of mitochondrial protein synthesis” value (shortened to “inhibition”) in data set [2] is “strongly inhibit mitochondrial protein synthesis”.
For `CCc1cc(CC[C@]2(C3CCCC3)CC(O)=C(Cc3nc4nc(C)cc(C)n4n3)C(=O)O2)cc(CC)n1` [Filibuvir (3007)], in data set [1], the “Synergy Volume” value is on record as 23.51 μM^2% and the Determination entry is “Additive (volumes in the −25-25 range indicate additive behavior)”.
The matching figures for `COc1ccc2c(O[C@@H]3C[C@H]4C(=O)N[C@]5(C(=O)NS(=O)(=O)C6CC6)C[C@H]5/C=C\CCCCN(C)C(=O)[C@@H]4C3)cc(-c3nc(C(C)C)cs3)nc2c1C` [TMC-435 (1013)]: 97.17 μM^2% and “Synergistic (volumes in the 25-100 range indicate synergistic behavior)”.
On to `CC(C)(C)C#Cc1cc(N(C(=O)[C@H]2CC[C@H](C)CC2)[C@H]2CC[C@H](O)CC2)c(C(=O)O)s1` [VX-222 (3003)], for which, in data set [1], the “Synergy Volume” value stood at 32.35 μM^2% and the Determination entry was “Synergistic (volumes in the 25-100 range indicate synergistic behavior)”.
For `Nc1ccn([C@H]2CC[C@@H](CO)O2)c(=O)n1` [ddC], the “inhibition” value in data set [2] is on record as “strongly inhibit mitochondrial protein synthesis”.
With `CCC[C@H](NC(=O)[C@@H]1[C@H]2CCC[C@H]2CN1C(=O)[C@@H](NC(=O)[C@@H](NC(=O)c1cnccn1)C1CCCCC1)C(C)(C)C)C(=O)C(=O)NC1CC1` [VX-950 (1001)], in data set [1], the “Synergy Volume” value amounted to 32.28 μM^2% and the Determination result is given as “Synergistic (volumes in the 25-100 range indicate synergistic behavior)”.
For `Cc1cn([C@H]2C=C[C@@H](CO)O2)c(=O)[nH]c1=O` [d4T], in data set [2], the “inhibition” value was “not to inhibit mitochondrial protein synthesis at concentrations up to 100 μM”.
Regarding `Nc1ncnc2c1ncn2[C@@H]1O[C@H](COP(=O)(O)OP(=O)(O)OP(=O)(O)O)[C@@H](O)[C@H]1O` [ATP], the “incorporation by HMRP (template for GTP analogs, FIG. 11)” value in data set [3] was “poor substrate for incorporation”.
On to `C[C@@]1(F)[C@H](O)[C@@H](COP(=O)(O)OP(=O)(O)OP(=O)(O)O)O[C@H]1n1ccc(=O)[nH]c1=O` [2′-Me-2′-F-UTP], for which the “incorporation by HMRP (template for UTP analogs, FIG. 10)” value in data set [3] is “not efficient substrates for incorporation by HMRP”.

The record behind these values is patent US10793591B2, “Substituted nucleosides, nucleotides and analogs thereof” (priority 2012, dated 2020).
